Measured values published in patent US20260042731A1, “(2,4-DICHLOROPHENOXY)ACETIC ACID ANALOGS” (CORTEVA AGRISCIENCE LLC, priority 2022, published 2026).
Where two headings read alike, the source gives them in different places.

Tests used:
[1] = test system: Chenopodium album (CHEAL), common lambsquarters; assay: Postemergence herbicide evaluation, growth of Chenopodium album (CHEAL); type: in vivo; conditions: Chenopodium album, post-emergence, percent reduction in plant size vs untreated control, read-out: Ave. CHEAL; for pest or weed control at 280 g/ha: 280 g ae/ha; for pest or weed control at 560 g/ha: 560 g ae/ha
[2] = test system: Ambrosia artemisiifolia (AMBEL), common ragweed; assay: Postemergence herbicide evaluation, growth of Ambrosia artemisiifolia (AMBEL); type: in vivo; conditions: Ambrosia artemisiifolia, post-emergence, percent reduction in plant size vs untreated control, read-out: AVE. AMBEL; for pest or weed control at 280 g/ha: 280 g ae/ha; for pest or weed control at 560 g/ha: 560 g ae/ha
[3] = test system: weeds ABUTH, AMATA, AMBEL, CHEAL, ERICA; assay: Postemergence herbicide evaluation, overall average % weed control across ABUTH, AMATA, AMBEL, CHEAL and ERICA; type: in vivo; conditions: post-emergence, average over five weeds, read-out: Overall Ave % Weed Control; for pest or weed control at 280 g/ha: 280 g ae/ha; for pest or weed control at 560 g/ha: 560 g ae/ha
[4] = test system: Abutilon theophrasti (ABUTH), velvetleaf; assay: Postemergence herbicide evaluation, growth of Abutilon theophrasti (ABUTH); type: in vivo; conditions: Abutilon theophrasti, post-emergence, percent reduction in plant size vs untreated control, read-out: AVE. ABUTH; for pest or weed control at 280 g/ha: 280 g ae/ha; for pest or weed control at 560 g/ha: 560 g ae/ha
[5] = test system: Amaranthus rudis (AMATA), tall water hemp; assay: Postemergence herbicide evaluation, growth of Amaranthus rudis (AMATA); type: in vivo; conditions: Amaranthus tuberculatus, post-emergence, percent reduction in plant size vs untreated control, read-out: Ave. AMATA; for pest or weed control at 280 g/ha: 280 g ae/ha; for pest or weed control at 560 g/ha: 560 g ae/ha
[6] = Volatility of compounds measured by thermogravimetric analysis (TGA); type: physicochemical
[7] = test system: glyphosate resistant Conyza canadensis (L.) (ERICA), horseweed; assay: Postemergence herbicide evaluation, growth of Conyza canadensis (ERICA); type: in vivo; conditions: Erigeron canadensis, post-emergence, percent reduction in plant size vs untreated control, read-out: Ave. ERICA; for pest or weed control at 280 g/ha: 280 g ae/ha; for pest or weed control at 560 g/ha: 560 g ae/ha

Compound | pest or weed control at 280 g/ha ([1]; 168 h, 7 DAA) | pest or weed control at 560 g/ha ([1]; 168 h, 7 DAA) | pest or weed control at 560 g/ha ([1]; 336 h, 14 DAA) | pest or weed control at 560 g/ha ([1]; 504 h, 21 DAA) | pest or weed control at 560 g/ha ([2]; 168 h, 7 DAA) | pest or weed control at 560 g/ha ([2]; 336 h, 14 DAA) | pest or weed control at 560 g/ha ([2]; 504 h, 21 DAA) | pest or weed control at 560 g/ha ([3]; 168 h, 7 DAA) | pest or weed control at 560 g/ha ([3]; 336 h, 14 DAA) | pest or weed control at 560 g/ha ([3]; 504 h, 21 DAA) | pest or weed control at 560 g/ha ([4]; 168 h, 7 DAA) | pest or weed control at 560 g/ha ([4]; 336 h, 14 DAA) | pest or weed control at 560 g/ha ([4]; 504 h, 21 DAA) | pest or weed control at 560 g/ha ([5]; 168 h, 7 DAA) | pest or weed control at 560 g/ha ([5]; 336 h, 14 DAA) | pest or weed control at 560 g/ha ([5]; 504 h, 21 DAA) | TGA Data (rate of weight loss, volatility) [6] | pest or weed control at 560 g/ha ([7]; 168 h, 7 DAA) | pest or weed control at 560 g/ha ([7]; 336 h, 14 DAA) | pest or weed control at 560 g/ha ([7]; 504 h, 21 DAA) | also measured
O=C(COc1ccc(Cl)cc1Cl)NOCc1ccc(Cl)cc1 [Compound D16] | 80% | 82.5% | 92.5% | 100% | 72.5% | 87.5% | 100% | 67.5% | 81.5% | 87.3% | 27.5% | 37.5% | 45% | 75% | 92.5% | 92.5% | 0.03658 µg/min | 80% | 97.5% | 99% | pest or weed control at 280 g/ha ([1]; 336 h, 14 DAA): 94%; pest or weed control at 280 g/ha ([1]; 504 h, 21 DAA): 97.5%; pest or weed control at 280 g/ha ([2]; 168 h, 7 DAA): 77.5%; pest or weed control at 280 g/ha ([2]; 336 h, 14 DAA): 75%; pest or weed control at 280 g/ha ([2]; 504 h, 21 DAA): 100%; pest or weed control at 280 g/ha ([3]; 168 h, 7 DAA): 74%; pest or weed control at 280 g/ha ([3]; 336 h, 14 DAA): 85.3%; pest or weed control at 280 g/ha ([3]; 504 h, 21 DAA): 92.5%; pest or weed control at 280 g/ha ([4]; 168 h, 7 DAA): 65%; pest or weed control at 280 g/ha ([4]; 336 h, 14 DAA): 72.5%; pest or weed control at 280 g/ha ([4]; 504 h, 21 DAA): 80%; pest or weed control at 280 g/ha ([5]; 168 h, 7 DAA): 75%; pest or weed control at 280 g/ha ([5]; 336 h, 14 DAA): 92.5%; pest or weed control at 280 g/ha ([5]; 504 h, 21 DAA): 85%; pest or weed control at 280 g/ha ([7]; 168 h, 7 DAA): 72.5%; pest or weed control at 280 g/ha ([7]; 336 h, 14 DAA): 92.5%; pest or weed control at 280 g/ha ([7]; 504 h, 21 DAA): 100%
O=C(COc1ccc(Cl)cc1Cl)NOCc1c(F)cccc1Cl [Compound D17] | – | 77.5% | 98% | 100% | 77.5% | 92.5% | 100% | 73.8% | 89.8% | 94.5% | 47.5% | 62.5% | 80% | 86.5% | 96% | 92.5% | 0.0287 µg/min | 80% | 100% | 100% | –
O=C(COc1ccc(Cl)cc1Cl)NOCCc1ccccc1 [Compound D18] | 75% | 75% | 92.5% | 100% | 91% | 95% | 100% | 83.9% | 95.6% | 98.5% | 72.5% | 96.5% | 99.5% | 96% | 96% | 95% | 0.1777 µg/min | 85% | 98% | 98% | pest or weed control at 280 g/ha ([1]; 336 h, 14 DAA): 97.5%; pest or weed control at 280 g/ha ([1]; 504 h, 21 DAA): 92.5%; pest or weed control at 280 g/ha ([2]; 168 h, 7 DAA): 75%; pest or weed control at 280 g/ha ([2]; 336 h, 14 DAA): 80%; pest or weed control at 280 g/ha ([2]; 504 h, 21 DAA): 100%; pest or weed control at 280 g/ha ([3]; 168 h, 7 DAA): 75%; pest or weed control at 280 g/ha ([3]; 336 h, 14 DAA): 89.8%; pest or weed control at 280 g/ha ([3]; 504 h, 21 DAA): 93.5%; pest or weed control at 280 g/ha ([4]; 168 h, 7 DAA): 67.5%; pest or weed control at 280 g/ha ([4]; 336 h, 14 DAA): 85%; pest or weed control at 280 g/ha ([4]; 504 h, 21 DAA): 100%; pest or weed control at 280 g/ha ([5]; 168 h, 7 DAA): 72.5%; pest or weed control at 280 g/ha ([5]; 336 h, 14 DAA): 87.5%; pest or weed control at 280 g/ha ([5]; 504 h, 21 DAA): 75%; pest or weed control at 280 g/ha ([7]; 168 h, 7 DAA): 85%; pest or weed control at 280 g/ha ([7]; 336 h, 14 DAA): 99%; pest or weed control at 280 g/ha ([7]; 504 h, 21 DAA): 100%
